pIC50: −log10 of the molar value. ≈ marks a conversion by molar mass, not a printed value. Blank lines part the entries; values can stand above or below the molecule they belong to.
How the values were obtained:
A549 [1] = test: Antiproliferative activity against human A549 cells assessed as reduction in cell viability after 48 hrs by MTT assay; format: functional, cell-based; details: A549, 48 h
HT-29 = test: Antiproliferative activity against human HT-29 cells assessed as reduction in cell viability after 48 hrs by MTT assay; format: functional, cell-based; details: HT-29, 48 h
U-87 MG = test: Antiproliferative activity against human U87MG cells assessed as reduction in cell viability after 48 hrs by MTT assay; format: functional, cell-based, U-87MG ATCC
PC-3 = test: cells; format: functional, cell-based; details: Homo sapiens, PC-3, 48 h
Description: Antiproliferative activity against human PC3 cells assessed as reduction in cell viability after 48 hrs by MTT assay

MCF7 [2] = test: cells; format: functional, cell-based; details: Homo sapiens
Description: Antiproliferative activity against human MCF7 cells by MTT assay

HCT-116 [3] = test: Antiproliferative activity against human HCT116 cells by MTT assay; format: functional, cell-based
HepG2 [4] = test: Antiproliferative activity against human HepG2 cells by MTT assay; format: functional, cell-based
T47D [5] = test: Antiproliferative activity against human T47D cells assessed as reduction in cell viability after 72 hrs by MTT assay; format: functional, cell-based
MCF7 [6] = test: Antiproliferative activity against human MCF7 cells assessed as reduction in cell viability after 72 hrs by MTT assay; format: functional, cell-based; details: MCF7, 72 h
C2C12 = test: Cytotoxicity against mouse C2C12 cells assessed as reduction in cell viability after 48 hrs by MTT assay; format: cell-based; details: C2C12, 48 h
HCT-116 [7] = test: Antiproliferative activity against human HCT116 cells assessed as reduction in cell viability after 48 hrs by MTT assay; format: functional, cell-based; details: HCT-116, 48 h
MCF7 [8] = test: Antiproliferative activity against human MCF7 cells assessed as reduction in cell viability after 48 hrs by MTT assay; format: functional, cell-based; details: MCF7, 48 h
[9] = Antiproliferative activity against human SMCC7721 cells assessed as reduction in cell viability after 48 hrs by MTT assay; format: functional, cell-based
SW480 = test: Antiproliferative activity against human SW480 cells assessed as reduction in cell viability after 48 hrs by MTT assay; format: functional, cell-based; details: SW480, 48 h
KG-1a = test: Antiproliferative activity against human KG1a cells assessed as reduction in cell viability after 72 hrs by MTT assay; format: functional, cell-based
SK-BR-3 = test: Antiproliferative activity against human SKBR3 cells assessed as reduction in cell viability after 72 hrs by MTT assay; format: functional, cell-based; details: SK-BR-3, 72 h
SUM-159-PT = test: Antiproliferative activity against human SUM159 cells assessed as reduction in cell viability after 72 hrs by MTT assay; format: functional, cell-based
Caco-2 = test: Antiproliferative activity against human Caco2 cells assessed as reduction in cell viability after 48 hrs by MTT assay; format: functional, cell-based; details: Caco-2, 48 h
T47D [10] = test: Antiproliferative activity against human T47D cells assessed as reduction in cell viability after 48 hrs by MTT assay; format: functional, cell-based
DU-145 [11] = test: Antiproliferative activity against human DU145 cells assessed as reduction in cell viability after 48 hrs by MTT assay; format: functional, cell-based; details: DU-145, 48 h
HEK293 = test: Cytotoxicity against HEK293 cells assessed as reduction in cell viability after 48 hrs by MTT assay; format: cell-based; details: Homo sapiens, HEK293, 48 h
MDA-MB-231 [12] = test: Antiproliferative activity against human MDA-MB-231 cells assessed as reduction in cell viability after 48 hrs by MTT assay; format: functional, cell-based; details: MDA-MB-231, 48 h
DU-145 [13] = test: Antiproliferative activity against human DU145 cells by SRB assay; format: functional, cell-based
HeLa = test: Antiproliferative activity against human HeLa cells by SRB assay; format: functional, cell-based
MDA-MB-231 [14] = test: Antiproliferative activity against human MDA-MB-231 cells by SRB assay; format: functional
HepG2 [15] = test: Antiproliferative activity against human HepG2 cells by SRB assay; format: functional, cell-based
A549 [16] = test: Antiproliferative activity against human A549 cells by SRB assay; format: functional, cell-based
SK-N-SH = test: Antiproliferative activity against human SK-N-SH cells by MTT assay; format: functional, cell-based
MGC-803 = test: Antiproliferative activity against human MGC803 cells by MTT assay; format: functional, cell-based

pIC50 (A549 [1]): 5.43 to 6.07 | pIC50 (HT-29): 5.43 to 6.07 | pIC50 (U-87 MG): 5.43 to 6.07 | pIC50 (PC-3): 5.43 to 6.07
Structure (SMILES): COc1ccc(Cn2cc(C(=O)c3cn(-c4ccccc4)nc3-c3ccc(F)cc3)nn2)cc1OC

pIC50 (A549 [1]): 5.43 to 6.07 | pIC50 (HT-29): 5.43 to 6.07 | pIC50 (U-87 MG): 5.43 to 6.07 | pIC50 (PC-3): 5.43 to 6.07
Structure (SMILES): COc1ccc(-c2nn(-c3ccccc3)cc2C(=O)c2cn(Cc3ccc(OC)c(OC)c3)nn2)cc1

IC50 (MCF7 [2]): 66.8 µg/mL (≈ 109 µM) | IC50 (HCT-116 [3]): > 100 µg/mL | IC50 (HepG2 [4]): > 100 µg/mL
Structure (SMILES): CC(=O)N1N=C(c2nnn(-c3ccc(-n4nnc(C5=NN(C(C)=O)C(c6ccccc6)C5)c4C)cc3)c2C)CC1c1ccccc1 (stereo unspecified)

pIC50 (A549 [1]): 5.13 to 6.17 | pIC50 (SW480): 5.13 to 6.17 | pIC50 (MCF7 [8]): 5.13 to 6.17
Structure (SMILES): COc1cc([C@@H]2c3cc4c(cc3[C@H](n3cc(CO[C@@H]5O[C@H](CO[C@@H]6O[C@H](CO)[C@@H](O)[C@H](O)[C@H]6O)[C@@H](O)[C@H](O)[C@H]5O)nn3)[C@H]3COC(=O)[C@H]23)OCO4)cc(OC)c1OC
pIC50 [9]: 5.13 to 6.17

pIC50 (SK-BR-3): 5.13 to 5.69
Structure (SMILES): Fc1cccc(COc2ccc(Nc3ncnc4ccc(-n5cc(CN6CCCC6)nn5)cc34)cc2Cl)c1
pIC50 (KG-1a): 5.13 to 5.69 | pIC50 (SUM-159-PT): 5.13 to 5.69

pIC50 (Caco-2): 3.81 to 4.48 | pIC50 (T47D [10]): 3.81 to 4.48 | pIC50 (HCT-116 [7]): 3.81 to 4.48 | pIC50 (MCF7 [8]): 3.81 to 4.48
Structure (SMILES): O=C(Cn1cc(C(O)c2ccccc2)nn1)N1CCN(c2nc3ccccc3s2)CC1 (stereo unspecified)

pIC50 (SK-BR-3): 5.13 to 5.69
Structure (SMILES): CN1CCN(Cc2cn(-c3ccc4ncnc(Nc5ccc(OCc6cccc(F)c6)c(Cl)c5)c4c3)nn2)CC1
pIC50 (KG-1a): 5.13 to 5.69 | pIC50 (SUM-159-PT): 5.13 to 5.69

pIC50 (SK-BR-3): 5.13 to 5.69
Structure (SMILES): CCCN1CCC(NCc2cn(-c3ccc4ncnc(Nc5ccc(OCc6cccc(F)c6)c(Cl)c5)c4c3)nn2)CC1
pIC50 (KG-1a): 5.13 to 5.69 | pIC50 (SUM-159-PT): 5.13 to 5.69

GI50 (DU-145 [13]): 1.3 to 8.2 µM | GI50 (A549 [16]): 1.3 to 8.2 µM | GI50 (HeLa): 1.3 to 8.2 µM | GI50 (HepG2 [15]): 1.3 to 8.2 µM
Structure (SMILES): COc1ccc(/C=C/C(=O)c2cc(OC)c(OC)c(OC)c2)cc1OCc1cn(Cc2ccc(N)cc2)nn1

pIC50 (HCT-116 [7]): 4.82 | pIC50 (MCF7 [8]): 4.84
Structure (SMILES): CN(C)CCCOc1cc(C(=O)NCc2cn(-c3ccc(NC(=O)[C@@H]4CCCN4)cc3)nn2)nc(C(=O)NCc2cn(-c3ccc(NC(=O)[C@H]4CCCN4)cc3)nn2)c1
pIC50 (C2C12): < 4.40

IC50 (MCF7 [2]): 43.5 µg/mL (≈ 52.6 µM) | IC50 (HCT-116 [3]): > 100 µg/mL | IC50 (HepG2 [4]): > 100 µg/mL
Structure (SMILES): Cc1c(C2=NN(C(=S)NCc3ccccc3)C(c3ccccc3)C2)nnn1-c1ccc(-n2nnc(C3=NN(C(=S)NCc4ccccc4)C(c4ccccc4)C3)c2C)cc1 (stereo unspecified)

The remaining lines, values behind:

Structure (SMILES): COc1ccc(Cn2cc(C(=O)c3cn(-c4ccccc4)nc3-c3ccc(Cl)cc3)nn2)cc1OC
pIC50 (A549 [1]): 5.43 to 6.07 | pIC50 (HT-29): 5.43 to 6.07 | pIC50 (U-87 MG): 5.43 to 6.07 | pIC50 (PC-3): 5.43 to 6.07

Structure (SMILES): O=C(NCc1cn(Cc2ccc(F)cc2)nn1)c1cc(-c2ccccc2)on1
GI50 (T47D [5]): 27.7 to 85.7 µg/mL (≈ 73.4 to 227 µM) | GI50 (MCF7 [6]): 27.7 to 85.7 µg/mL (≈ 73.4 to 227 µM)

Structure (SMILES): O=C(Nc1ccc(-n2cc(Oc3ccc(-c4cc(-c5ccc(Oc6cn(-c7ccc(NC(=O)[C@@H]8CCCN8)cc7)nn6)cc5)cc(-c5ccc(Oc6cn(-c7ccc(NC(=O)[C@@H]8CCCN8)cc7)nn6)cc5)c4)cc3)nn2)cc1)[C@@H]1CCCN1
pIC50 (C2C12): < 4.40 | pIC50 (HCT-116 [7]): 4.87 to 5.15 | pIC50 (MCF7 [8]): 4.87 to 5.15

Structure (SMILES): CN(C)CCCOc1cc(C(=O)NCc2cn(-c3cccc(NC(=O)[C@@H]4CCCN4)c3)nn2)nc(C(=O)NCc2cn(-c3cccc(NC(=O)[C@H]4CCCN4)c3)nn2)c1
pIC50 (C2C12): < 4.40 | pIC50 (HCT-116 [7]): 5.89 | pIC50 (MCF7 [8]): 5.77

Structure (SMILES): COc1cc(-c2ccc(Cn3cc(C(=O)c4c(-c5ccccc5)nc5ccccn45)nn3)cc2)cc(OC)c1OC
pIC50 (DU-145 [11]): 5.40 to 6.29 | pIC50 (A549 [1]): 5.40 to 6.29 | pIC50 (HEK293): 4.20 | pIC50 (MDA-MB-231 [12]): 5.40 to 6.29 | pIC50 (HCT-116 [7]): 5.40 to 6.29

Structure (SMILES): O=c1oc(-c2ccccc2)nn1Cc1cn(Cc2ccccc2)nn1
GI50 (DU-145 [13]): 0.82 to 2.39 µM | GI50 (HeLa): 0.82 to 2.39 µM | GI50 (MDA-MB-231 [14]): 0.82 to 2.39 µM | GI50 (HepG2 [15]): 0.82 to 2.39 µM

Structure (SMILES): COc1cc(/C=C/C(=O)c2ccc(OCCCn3cc(CSc4nnnn4C)nn3)cc2)cc(OC)c1OC
pIC50 (SK-N-SH): 4.98 to 5.82 | pIC50 (MGC-803): 4.98 to 5.82 | pIC50 (HepG2 [4]): 4.98 to 5.82

Structure (SMILES): Cc1ccc(-c2nn(Cc3cn(Cc4ccccc4F)nn3)c(=O)o2)cc1
GI50 (DU-145 [13]): 0.82 to 2.39 µM | GI50 (HeLa): 0.82 to 2.39 µM | GI50 (MDA-MB-231 [14]): 0.82 to 2.39 µM | GI50 (HepG2 [15]): 0.82 to 2.39 µM

Source: ChEMBL document CHEMBL4342418, “1,2,3-Triazole-containing hybrids as potential anticancer agents: Current developments, action mechanisms and structure-activity relationships” (Eur J Med Chem, 2019)
